This note sets out measurements from US11021481B2, “Substituted isoindolin-1-ones and 2,3-dihydro-1h-pyrrolo[3,4-c]pyridin-1-ones as HPK1 antagonists” (Nimbus Saturn, Inc., priority 2019, dated 2021).

Some results are limits rather than exact numbers.

Chain of HPK1 (Q92918 whole entry): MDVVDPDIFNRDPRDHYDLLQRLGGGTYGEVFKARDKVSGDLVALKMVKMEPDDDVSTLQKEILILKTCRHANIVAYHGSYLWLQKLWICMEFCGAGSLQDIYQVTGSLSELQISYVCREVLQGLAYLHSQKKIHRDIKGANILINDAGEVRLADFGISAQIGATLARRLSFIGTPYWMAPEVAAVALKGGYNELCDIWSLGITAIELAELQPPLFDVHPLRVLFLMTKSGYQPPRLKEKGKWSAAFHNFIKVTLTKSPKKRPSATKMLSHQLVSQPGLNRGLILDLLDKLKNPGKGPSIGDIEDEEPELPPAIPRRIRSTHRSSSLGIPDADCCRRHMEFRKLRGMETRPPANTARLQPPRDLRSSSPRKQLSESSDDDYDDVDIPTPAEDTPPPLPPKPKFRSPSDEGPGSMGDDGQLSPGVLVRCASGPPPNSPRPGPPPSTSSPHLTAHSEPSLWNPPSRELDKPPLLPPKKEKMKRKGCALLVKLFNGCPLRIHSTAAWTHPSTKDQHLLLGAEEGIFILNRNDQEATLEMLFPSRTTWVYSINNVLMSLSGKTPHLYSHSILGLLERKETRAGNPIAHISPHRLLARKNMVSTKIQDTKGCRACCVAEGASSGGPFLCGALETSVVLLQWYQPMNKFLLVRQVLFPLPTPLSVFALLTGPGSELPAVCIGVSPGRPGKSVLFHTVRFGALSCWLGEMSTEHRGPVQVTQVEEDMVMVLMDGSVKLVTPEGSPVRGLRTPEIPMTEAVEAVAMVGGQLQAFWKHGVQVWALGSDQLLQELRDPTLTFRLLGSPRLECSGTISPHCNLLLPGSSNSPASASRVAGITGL

The assay has as its target HPK1 (Homo sapiens (Human), UniProt Q92918). Nature of the assay: HPK1 biochemical enzyme assay (microfluidic mobility shift assay). The conditions noted are these: 1.5 nM HPK1, ATP 1 mM final, 30 min preincubation, 60 min at RT, Caliper EZ Reader; read-out: HPK1 1000UMATP caliper IC50. An outline of the steps: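 Mobility shift readout of HPK1 activity after a 60 min RT reaction with 1 mM ATP, 1 μM substrate and 5 mM MgCl2. Enzyme/substrate mix was first exposed to compounds for 30 min, using ten-point curves topping at 3 μM final.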
As to `CN1CCN(c2ccc(Nc3ccc(-c4c[nH]c5cc(F)ccc45)c4c3C(=O)NC4)nc2)CC1` [I-32, 4-(6-fluoro-1H-indol-3-yl)-7-[[5-(4-methylpiperazin-1-yl)-2-pyridyl]amino] isoindolin-1-one], the IC50 (as a rule, the concentration at which inhibition is half-maximal) was below 100 nM.

Take `O=C1NCc2c(-c3cnc4cnccn34)ccc(Nc3ccc(N4CCC[C@@H](O)C4)cn3)c21` [I-171]: the IC50 is below 100 nM.

As to `O=C1NCc2c(-c3cnc4cc(F)ccn34)ncc(Nc3ccc(N4CCC(O)CC4)cn3)c21` [I-167, 4-(7-fluoroimidazo [1,2-a]pyridin-3-yl)-7-[[5-(4-hydroxy-1-piperidyl)-2-pyridyl]amino]-2,3-dihydropyrrolo [3,4-c]pyridin-1-one], the IC50 was below 100 nM.

On to `CN1CCN(c2ccc(Nc3cnc(-c4cnc5c(F)cccn45)c4c3C(=O)NC4)nc2)CC1C(C)(C)O` (stereo in doubt) [I-622, (S)-4-(8-fluoroimidazo [1,2-a]pyridin-3-yl)-7-((5-(3-(2-hydroxypropan-2-yl)-4-methylpiperazin-1-yl)pyridin-2-yl)amino)-2.3-dihydro-1H-pyrrolo[3,4-c]pyridin-1-one], for which the IC50 was below 100 nM.

On to `CC(C)(O)[C@H]1CN(c2ccc(Nc3cnc(-c4cnc5c(Cl)cccn45)c4c3C(=O)NC4)nc2)CCO1` [I-462], for which the IC50 was below 100 nM.

Regarding `COCCNc1ccn2c(-c3ccc(Nc4ccc(N5CCC(O)CC5)cn4)c4c3CNC4=O)cnc2c1` [I-205, 7-[[5-(4-hydroxy-1-piperidyl)-2-pyridyl]-amino]-4-[7-(2-methoxyethyl-amino)imidazo [1,2-a]pyridin-3-yl]isoindolin-1-one], the IC50 is 100 to 1000 nM.

On to `O=C1NCc2c(-c3cnc4cc(Cl)ccn34)ccc(Nc3ccc(N4CCC(O)(CN5CCOCC5)CC4)cn3)c21` [I-447, 4-(7-chloroimidazo [1,2-a]pyridin-3-yl)-7-((5-(4-hydroxy-4-(morpholino-methyl)piperidin-1-yl)pyridin-2-yl)amino)isoin-dolin-1-one], for which the IC50 is below 100 nM.

Turning to `COCC1CN(c2ccc(Nc3ccc(-c4cnc5nc(C)ccn45)c4c3C(=O)NC4)nc2)CCO1` (stereo in doubt) [I-629, (S)-7-((5-(2-(methoxymeth-yl)morpho-lino)pyridin-2-yl)amino)-4-(7-methylimidazo [1,2-a]pyrimidin-3-yl) isoindolin-1-one], the 50% inhibitory concentration (IC50) is below 100 nM.

For the compound `CC(C)(O)[C@@H]1COCCN(c2ccc(Nc3ccc(-c4cnc5cc(F)ccn45)c4c3C(=O)NC4)nc2)C1` [I-627, (S)-4-(7-fluoroimidazo [1,2-a]pyridin-3-yl)-7-((5-(6-(2-hydroxypropan-2-yl)-1,4-oxazepan-4-yl)pyridin-2-yl)amino)isoin-dolin-1-one], the IC50 was below 100 nM.

`CC(C)NCc1nc(Nc2ccc(-c3cnc4cc(F)ccn34)c3c2C(=O)NC3)ccc1[C@@H]1CCOC1` [I-558]: the IC50 is below 100 nM.

`CN(Cc1nc(Nc2ccc(-c3cnc4cc(F)ccn34)c3c2C(=O)NC3)ccc1[C@@H]1CCOC1)CC(F)F` (single isomer, unassigned) [I-749]: the IC50 is below 100 nM.

On to `CC(C)(O)[C@@H]1CCCN(c2ccc(Nc3ccc(-c4cnc5cc(F)ccn45)c4c3C(=O)NC4)nc2)C1` [I-202], for which the half-maximal inhibitory concentration (IC50) is below 100 nM.

On to “(S)-7-((5-(4-hydroxypiperidin-1-yl)pyridin-2-yl)amino)-3-methyl-4-(1-methyl-1H-pyrrolo[2,3-b]pyridin-4-yl)isoindolin-1-one [I-286]”, for which the IC50 is above 1000 nM.

On to `O=C1NCc2c(-c3cnc4cc(F)ccn34)ccc(Nc3ccc(N4CC[C@H](F)[C@@H](O)C4)cn3)c21` [I-346, 7-((5-((3S.4S)-4-fluoro-3-hydroxypiperidin-1-yl)pyridin-2-yl)amino)-4-(7-fluoroimidazo [1,2-a]pyridin-3-yl)isoindolin-1-one], for which the IC50 is below 100 nM.

For the compound `CN(C)Cc1ccn2c(-c3ccc(Nc4ccc(N5CCC(O)CC5)cn4)c4c3CNC4=O)cnc2c1` [I-380, 4-(7-((dimethylamino)-methyl)imi-dazo[1,2-a]pyridin-3-yl)-7-((5-(4-hydroxy-piperidin-1-yl)pyridin-2-yl)amino)isoin-dolin-1-one], the IC50 was 100 to 1000 nM.

On to `Cc1cn(C)c2nccc(-c3ccc(Nc4ccc(N5CCNCC5)cn4)c4c3CNC4=O)c12` [I-98], for which the IC50 was below 100 nM.

For `O=C1NCc2c(-c3cnc4cc(F)ccn34)ccc(Nc3ccc([C@@H]4CCOC4)c(CN4CC[C@H](O)C4)n3)c21` [I-779, 4-(7-fluoroimidazo[1,2-a]pyridin-3-yl)-7-((6-(((S)-3-hydroxypyrrolidin-1-yl)methyl)-5-((S)-tetrahydrofuran-3-yl)pyridin-2-yl)amino)isoindolin-1-one], the IC50 is below 100 nM.

In the case of `CN(C)CCN(C)c1cccc(Nc2cnc(-c3ccnc4c3ccn4C)c3c2C(=O)NC3)n1` [I-246, 7-[[6-[2-(dimethylami-no)ethyl-methyl-amino]-2-pyridyl]-amino]-4-(1-methylpyrrolo [2,3-b]pyridin-4-yl)-2,3-dihydropyrrolo [3,4-c]pyridin-1-one], the IC50 is below 100 nM.

Regarding `Cn1ccc2c(-c3ncc(Nc4ccc(N5CCO[C@H](C(C)(C)O)C5)cn4)c4c3CNC4=O)cccc21` [I-484, 7-[[5-[(2S)-2-(1-hydroxy-1-methyl-ethyl)morpholin-4-yl]-2-pyridyl]amino]-4-(1-methylindol-4-yl)-2,3-dihydropyrrolo [3,4-c]pyridin-l-one], the IC50 was below 100 nM.

With `Cc1ccn2c(-c3ccc(Nc4ccc(CN5CCOCC5)cn4)c4c3CNC4=O)cnc2c1F` [I-468, 4-(8-fluoro-7-methyl-imidazo[1,2-a]pyridin-3-yl)-7-[[5-(morpholino-methyl)-2-pyridyl]amino] isoindolin-1-one], the IC50 was below 100 nM.

Take `CN1CCN(c2ccc(Nc3cnc(-c4cccc5c4ccn5C)c4c3C(=O)NC4)nc2)CC1` [I-251, 4-(1-methyl-1H-indol-4-yl)-7-((5-(4-methylpiperazin-1-yl)pyridin-2-yl)amino)-2,3-dihydro-1H-pyrrolo[3,4-c]pyridin-1-one]: the IC50 was below 100 nM.

As for `CN1C[C@@H](c2ccc(Nc3ccc(-c4cnc5cnccn45)c4c3C(=O)NC4)nc2)CCC1=O` [I-325, (R)-4-(imidazo[1,2-a]pyrazin-3-yl)-7-((5-(1-methyl-6-oxopiperidin-3-yl)pyridin-2-yl)amino)isoin-dolin-1-one], the IC50 is below 100 nM.

For `O=C1NCc2c(-c3cnc4cnccn34)ccc(Nc3ccc(N4CC[C@@H](F)[C@H](O)C4)cn3)c21` [I-434, 7-((5-((3R,4R)-4-fluoro-3-hydroxypiperidin-1-yl)pyridin-2-yl)amino)-4-(imidazo[1,2-a]pyrazin-3-yl)isoindolin-1-one], the IC50 was below 100 nM.

For `CNCc1nc(Nc2ccc(-c3cnc4cc(F)ccn34)c3c2C(=O)NC3)ccc1C1CCOC1` (stereo in doubt) [I-723, (R)-4-(7-fluoroimidazo [1,2-a]pyridin-3-yl)-7-((6-((methyl-amino)methyl)-5-(tetrahydrofuran-3-yl)pyridin-2-yl)amino)isoin-dolin-1-one], the IC50 is below 100 nM.

As for `Cc1ccn2c(-c3ccc(Nc4ccc(N5CCC[C@@H](C(C)(C)O)C5)cn4)c4c3CNC4=O)cnc2n1` [I-233, 7-[[5-[(3R)-3-(1-hydroxy-1-methyl-ethyl)-1-piperidyl)-2-pyridyl)-amino]-4-(7-methylimidazo [1,2-a]pyrimidin-3-yl]isoindolin-1-one], the IC50 is below 100 nM.

For `O=C1NCc2c(-c3cncc4nccn34)ncc(Nc3ccc(N4CCC(O)CC4)cn3)c21` [I-376, 7-((5-(4-hydroxypiperidin-1-yl)pyridin-2-yl)amino)-4-(imidazo[1,2-a]pyrazin-5-yl)-2,3-dihydro-1H-pyrrolo[3,4-c]pyridin-1-one], the IC50 is 100 to 1000 nM.

Consider `Cn1ccc2c(-c3ncc(Nc4cccc(N5CCC[C@@H](N)C5)n4)c4c3CNC4=O)ccnc21` [I-231, 7-[[6-[(3R)-3-amino-1-piperidyl]-2-pyridyl]-amino]-4-(1-methylpyrrolo [2,3-b]pyridin-4-yl)-2,3-dihydropyrrolo [3,4-c]pyridin-1-one], for which the IC50 is below 100 nM.

On to `CN1CCCC1C1(O)CCN(c2ccc(Nc3ccc(-c4cnc5cc(F)ccn45)c4c3C(=O)NC4)nc2)CC1` (stereo not drawn) [I-677, 4-(7-fluoroimidazo [1,2-a]pyridin-3-yl)-7-((5-(4-hydroxy-4-(1-methylpyrrol-idin-2-yl)piperidin-1-yl)pyridin-2-yl)amino)isoin-dolin-1-one], for which the IC50 is below 100 nM.

As for `Cn1ccc2c(-c3ccc(Nc4ccc(N5CCC[C@@H](O)C5)cn4)c4c3CNC4=O)ccnc21` [I-121, 7-[[5-[(3R)-3-hydroxy-1-piperidyl]-2-pyridyl]amino]-4-(1-methylpyrrolo [2,3-b]pyridin-4-yl)isoindolin-1-one], the IC50 was below 100 nM.

For the compound `Cn1cnc2c(-c3ccc(Nc4ccc(N5CCC(O)CC5)cn4)c4c3CNC4=O)ccnc21` [I-152, 7-[[5-(4-hydroxy-1-piperidyl)-2-pyridyl]amino]-4-(3-methylimidazo [4,5-b]pyridin-7-yl)isoindolin-1-one], the IC50 was below 100 nM.

As for `Cn1ccc2c(-c3ccc(Nc4ccc(N5CCC(O)(CN6CCOCC6)CC5)cn4)c4c3CNC4=O)ccnc21` [I-291, 7-((5-(4-hydroxy-4-(morpholino-methyl)piperi-din-1-yl)pyridin-2-yl)amino)-4-(1-methyl-1H-pyrrolo[2,3-b]pyridin-4-yl)isoindolin-1-one], the IC50 is below 100 nM.

As to `CN(C)Cc1nc(Nc2ccc(-c3cnc4cc(F)ccn34)c3c2C(=O)NC3)ccc1[C@H]1CCN(C)C(=O)C1` [I-556, (S)-7-((6-((dimethylamino)-methyl)-5-(1-methyl-2-oxopiperidin-4-yl)pyridin-2-yl)amino)-4-(7-fluoroimidazo [1,2-a]pyridin-3-yl)isoindolin-1-one], the IC50 is below 100 nM.

For `CN1CCN(c2ccc(Nc3ccc(-c4cnc5n4CCNC5)c4c3C(=O)NC4)nc2)CC1` [I-92], the IC50 was below 100 nM.
